In patent US20190070140A1, “COMPOSITION COMPRISING PROTECTIN DX AS ACTIVE INGREDIENT FOR PREVENTING OR TREATING HYPERLIPIDEMIA OR FATTY LIVER DISEASE” (Solvit P&F, priority 2017, published 2019):

Key:
[1] = test system: ORP150; assay: Western-blot assay of ORP150 in HepG2 cells; format: cell-based, Human; details: 2 μm PDX, 24 hours, FIG. 3A
Experimental: After collecting HepG2 cells, protein was extracted from the cells with a buffer (PRO-PREF; Intron Biotechnology, Seoul, Korea) at 4° C. for 1 hour. A protein sample (35 μg) was applied to 12% SDS-PAGE, transferred to a nitrocellulose film (Amersham Bioscience, Westborough, Mass., USA), detected with a primary antibody, followed by probing with a secondary antibody and another secondary antibody conjugated with horseradish […] (Santa Cruz Biotechnology). The sample was detected by ECL kit. Under 70% comfluency, 0 to 20 nmol/L […] (si)RNA oligonucleotide to ORP150 purchased from Santa Cruz Biotechnology was transfected to inhibit gene expression. Scramble siRNA was used as a control group. 2 or 4 μg of pCMV3-ORP150 (Sino Biological, Beijing, China) was transiently transfected, leading to over-expression of ORP150. pCMV3 empty-vector was used as a control group. According to instruction of the manufacturer, transfection was executed using lipofectamine 2000 (Invitrogen). The present inventors have executed western-blot assay of ORP150 in HepG2 cells transfected with scramble siRNA or siFOXO1 in the presence of 2 μm of PDX for 24 hours.

[2] = test system: SREBP1, FAS and SCD1; assay: Western-blot assay of adipogenesis-related genes in livers of HFD mice; format: in vivo, mouse; details: PDX i.p. 1 μg/mice/day for 8 weeks, vs HFD, FIG. 5B
Experimental: (§1) The present study has received the approval of the Institutional Animal Review Committee (Institutional Animal Care and Use Committee in Korea University, Seoul, Korea). The animal experiment was conducted according to the Guide for Care and Use of Laboratory Animals (NH publication, 8th Ed., 2011). A control group and a group of male C57BL/6J(B6) mice at 8 weeks of age were subjected to a normal diet (ND, Brogaarden, Gentofte, Denmark) and a high fat diet (HFD, Research Diets, New Brunswick, N.J., USA) for 8 weeks, respectively. The HFD (high fat diet) group was provided with intra-peritoneal injection of PDX for 8 weeks (1 μg/mice/day). An ethanol injection group was used as a control group. […] A protein sample (35 μg) was applied to 12% SDS-PAGE, transferred to a nitrocellulose film (Amersham Bioscience, Westborough, Mass., USA), detected with a primary antibody, followed by probing with a secondary antibody and another secondary antibody conjugated with horseradish […] (Santa Cruz Biotechnology). The sample was detected by ECL kit. The present inventors have assessed PDX effects upon lipid accumulation in a mouse. For this purpose, a liver cut section from a mouse was subjected to histological assay and western-blot assay through H&E staining and Oil-Red-O staining, while TG accumulation was measured using a TG analysis kit.

[3] = test system: ORP150; assay: Western-blot assay of ORP150 expression in livers of HFD mice; format: in vivo, mouse; details: PDX i.p. 1 μg/mice/day for 8 weeks, FIG. 5D
Experimental: as §1

[4] = Body weight, liver weight and epididymal fat content of HFD mice; format: in vivo, mouse; details: PDX i.p. 1 μg/mice/day for 8 weeks, compared to HFD diet mice
Experimental: The present study has received the approval of the Institutional Animal Review Committee (Institutional Animal Care and Use Committee in Korea University, Seoul, Korea). The animal experiment was conducted according to the Guide for Care and Use of Laboratory Animals (NH publication, 8th Ed., 2011). A control group and a group of male C57BL/6J(B6) mice at 8 weeks of age were subjected to a normal diet (ND, Brogaarden, Gentofte, Denmark) and a high fat diet (HFD, Research Diets, New Brunswick, N.J., USA) for 8 weeks, respectively. The HFD (high fat diet) group was provided with intra-peritoneal injection of PDX for 8 weeks (1 μg/mice/day). An ethanol injection group was used as a control group. According to the above experimental procedures conducted for 8 weeks, the present inventors measured body weights, daily energy intakes, liver weights and epididymal fat contents, with respect to five mice per group.

[5] = test system: influenza virus; details: through RNA export system; reported; cited from earlier work

## CC/C=C\C[C@H](O)/C=C/C=C\C=C\[C@@H](O)C/C=C\C/C=C\CCC(=O)O [PDX, 10S,17S-dihydroxy-docosa-4Z,7Z,11E,13Z,15E,19Z-hexaeonic acid]
[1]; HepG2 cells transfected with FOXO1 siRNA
  PDX effects of promoting ORP150 expression: inhibited
[1]; HepG2 cells, scramble siRNA
  ORP150 expression level: increased
[2]
  expression of adipogenesis-related genes SREBP1, FAS and SCD1 in the liver: significantly reduced
[3]
  ORP150 expression suppressed in the liver by HFD: remarkably recovered
[4]; FIG. 6A
  body weights: significantly reduced
[4]; FIG. 6C
  liver weights: significantly decreased
[4]; FIG. 6D
  epididymal fat contents: significantly decreased
[5]
  replication of influenza virus: inhibits
